The source of these data is patent US11478469B2, “Combination product of BCL-2 inhibitor and MDM2 inhibitor and use thereof in the prevention and/or treatment of diseases” (ASCENTAGE PHARMA (SUZHOU) CO., LTD., priority 2018, dated 2022).

The test system of assay [1] is human OCI-AML-3 (AML) mouse xenograft tumor. The assay is described as follows: Human OCI-AML-3 AML mouse xenograft tumor model. The note with it: for antitumor effect in words: 11 days of administration, Compound 6 25 or 100 mg/kg qd, APG-115 100 mg/kg (d1-d4) and 50 mg/kg (d5-d11) q2d. Format: in vivo. The source says: A subcutaneous xenograft tumor model of human tumor immunodeficient mice was established by cell inoculation (see: Gould S E et al. Translational value of mouse models in oncology drug development. Nature medicine. 2015 21, 431-439; and, Souers A J et al. ABT-199, a potent and selective BCL-2 inhibitor, achieves antitumor activity while sparing platelets. Nature medicine. 2012 19.202-208): tumor cells in logarithmic growth phase were collected, counted and resuspended in 1×PBS, and the cell suspension concentration was adjusted to 2.5-5×10^7/mL. Using a 1 mL syringe ([…]), the tumor cells were inoculated subcutaneously in the right side of immunodeficient mice, 5-10×106/0.2 mL/mouse (experimental animals were purchased from Beijing Vital River Laboratory Animal Technology Co., Ltd. SCXK (Beijing) 2016-0006). All animal experiments were strictly in accordance with the laboratory animal use and management practices of GenePharma Co., Ltd. and Ascentage Pharma Group Co., Ltd. The calculation of relevant parameters referred to the Chinese CFDA “Guidelines for Non-Clinical Research Techniques of Cytotoxic Antitumor Drugs”.
Animal body weight and tumor size were measured twice a week during the experiment. The conditions and death of the animals were observed every day. Routine monitoring included the effects of tumor growth and treatment on normal animal behaviors, including activity, feeding and drinking situations, weight gain or loss, eyes, coat and other abnormalities in the experimental animals. The deaths and clinical symptoms observed during the experiment were recorded in the raw data. The entire operations of administration, measurement of mouse body weight and tumor volume were performed in a clean bench. Plasma and tumor tissues were collected, weighed and photographed after the end of the last administration according to the experimental protocol. Plasma and tumor samples were frozen and stored at −80° C.
Tumor volume (TV) was calculated as: TV=a×b2/2, in which a and b represented the length and width of the tumor as measured, respectively. The relative tumor volume (RTV) was calculated as: RTV=Vt/V1, in which V1 was the tumor volume at the time of grouping and administration, and Vt was the tumor volume measured on a day after administration. The evaluation index of anti-tumor activity was the relative tumor proliferation rate T/C (%), which was calculated as: relative tumor proliferation rate T/C (%)=(TRTV/CRTV)×100%, in which TRTV was the RTV of the treatment group, CRTV was the RTV of the vehicle control group; tumor remission rate (%) was calculated as: (the number of SD (stable disease), PR (tumor partial regression) and CR (tumor complete regression) in the tumor-bearing mice after treatment)/the total number of mice in the group×100%. Change of body weight %=(measured body weight−body weight at the time of grouping)/body weight at the time of grouping×100%.
The synergistic analysis was performed by the following formula (Gould S E et al. Translational value of mouse models in oncology drug development. Nature medicine. 2015 21, 431-439): synergy factor=((A/C)×(B/C))/(AB/C); A=RTV value of the group administered with A only; B═RTV value of the group administered with B only; C=RTV value of the vehicle control group; AB=RTV value of the group administered with A and B in combination (Clarke R. Issues in experimental design and endpoint analysis in the study of experimental cytotoxic agents in vivo in breast cancer and other models [J]. Breast Cancer Research & Treatment, 1997, 46(2-3): 255-278).
(1) The experimental method was as described in Section (2) of Example 1. […] Therefore, a mouse xenograft tumor model was further established using the OCI-AML-3 tumor cell line to evaluate the in vivo anti-tumor effects of Compound 6 and APG-115. […]

The subject of assay [2] is KMS-26 (multiple myeloma (MM)). The assay is described as follows: CellTiter-Glo (CTG) cell proliferation assay, KMS-26. The note with it: KMS-26, single agent alone, 24 hours; read-out: IC50 for inhibition of proliferation. Format: cell-based. On the procedure:
(§1) Anti-proliferative effects were tested by CellTiter-Glo® (CTG) assay. Cells were seeded in 96-well plates and treated with different concentrations of test substance for 24 hours. By using 9 different concentrations of Compound 6 (which were selected in a 3× gradient between 10-3 and 101 μM, i.e., 0.0016, 0.0045, 0.014, 0.041, 0.12, 0.36, 1.1, 3.2, 10 μM) in combination with 3 different concentrations of MDM2 inhibitor (e.g., APG-115) in action for 24 hours, the effects of Compound 6 in combination with the drug were tested. Each test dose was tested with 3 replicate wells.
(§2) Usually, 9 series of doses of the test substance were selected, and added to 96-well plates, 5 μl/well. For the combination experiment, the final volume of the two test substances was 5 μl/well. […] After mixing on a shaker for 2 minutes, leaving at room temperature for 10 minutes, the fluorescence value was read by using a Biotek synergy HIMF plate reader. Using the average fluorescence value of 3 replicate wells, the percentage of cell viability was calculated by the following formula: Cell viability (%)=(fluorescence value of test well—fluorescence value of negative control well)/(fluorescence value of vehicle control-fluorescence value of negative control group)×100%
(§3) The IC50 was calculated using the nonlinear regression data analysis method of Graphpad Prism 6.0 software ([…]). […]
In general terms: In ATP-based viability assays light output follows the ATP content of the culture.

The subject of assay [3] is KMS-11 (multiple myeloma (MM)). The assay is described as follows: CellTiter-Glo (CTG) cell proliferation assay, KMS-11. Format: cell-based. The note with it: Homo sapiens; KMS-11, single agent alone, 24 hours; read-out: IC50 for inhibition of proliferation. On the procedure: as §1, §2, §3
Setting [4] is: APG-115 50 mg/kg alone (text: 100 mg/kg d1-d4, 50 mg/kg d5-d11, q2d).
Setting [5] is: Compound 6 25 mg/kg qd, alone or with APG-115 50 mg/kg.
Where [6] appears, read: Compound 6 100 mg/kg qd, alone or with APG-115 50 mg/kg.

For `CCN1[C@@H](C(=O)NC23CCC(C(=O)O)(CC2)CC3)[C@H](c2cccc(Cl)c2F)[C@]2(C(=O)Nc3cc(Cl)ccc32)C12CCCCC2` [APG-115], the “antitumor effect in words” value in assay [1] is reported as “did not exhibit tumor growth inhibition”. Moreover, in assay [1] (setting [4]), the “RTV on day 11 after administration” value is reported as 12.5 ± 2.5 and the “T/C (%) value on day 11 after administration” value is recorded as 69%.

Take `O=C(NS(=O)(=O)c1ccc(NC[C@H]2COCCO2)c([N+](=O)[O-])c1)c1ccc(N2CCN(CC3=C(c4ccc(Cl)cc4)CC4(CCC4)CC3)CC2)cc1Oc1cnc2[nH]ccc2c1` [Compound 6, (S)-N-((4-(((1,4-dioxan-2-yl)methyl)amino)-3-nitrophe-nyl)sulfonyl)-2-((1H-pyrrolo[2,3-b]pyridin-5-yl)oxy)-4-(4-((6-(4-chlorophenyl)spiro[3.5]non-6-en-7-yl)meth-yl)piperazin-1-yl)benzamide]: the IC50 in assay [2] was determined as 14.7 µM; in assay [3], 10.8 µM. Further, the “antitumor effect in words” value in assay [1] is “did not exhibit tumor growth inhibition”. In addition, the “RTV on day 11 after administration” value in assay [1] (setting [5]) came to 16.2 ± 2.3; in assay [1] (setting [6]), 13.0 ± 1.9. Further, the “T/C (%) value on day 11 after administration” value is 90% in assay [1] (setting [5]) and 72% in assay [1] (setting [6]).
